Reference: patent US8183236B2, “Compounds with HIV-1 integrase inhibitory activity and use thereof as anti-HIV/AIDS therapeutics” (University of Southern California, priority 2007, dated 2012)

Legend:
[1] = molecular target: T1, HIV-1 integrase (wild-type IN) (Human immunodeficiency virus type 1 group M subtype B, UniProt P12497); assay: HIV-1 integrase 3′-processing assay (32P-labeled 21-mer, gel); assay type: biochemical
From the text: (§1) The oligonucleotides 21 top, 5′-[…]-3′ (SEQ ID NO:1) and 21 bot, 5′-[…]-3′ (SEQ ID NO:2) were purchased from Norris Cancer Center Core Facility (University of Southern California) and purified by UV shadowing on polyacrylamide gel. To analyze the extent of 3′-processing and strand transfer using 5′-end labeled substrates, 21 top was 5′-end labeled using T4 polynucleotide kinase (Epicentre, Madison, Wis.) and γ [^32P]-ATP (Amersham Biosciences or ICN). The kinase was heat-inactivated and 21 bot was added in 1.5-molar excess. The mixture was heated at 95° C., allowed to cool slowly to room temperature, and run through a spin 25 mini-column (USA Scientific) to separate annealed double-stranded oligonucleotide from unincorporated material.
(§2) To determine the extent of 3′-processing and strand transfer, wild-type IN was preincubated at a final concentration of 200 nM with the inhibitor in reaction buffer (50 mM NaCl, 1 mM HEPES, pH 7.5, 50 μM EDTA, 50 μM dithiothreitol, 10% glycerol (w/v), 7.5 mM MnCl2, 0.1 mg/ml bovine serum albumin, 10 mM 2-mercaptoethanol, 10% dimethyl sulfoxide, and 25 mM MOPS, pH 7.2) at 30° C. for 30 min. Then, 20 nM of the 5′-end ^32P-labeled linear oligonucleotide substrate was added, and incubation was continued for an additional one hour. Reactions were quenched by the addition of an equal volume (16 μl) of loading dye (98% deionized formamide, 10 mM EDTA, 0.025% xylene cyanol and 0.025% bromophenol blue). An aliquot (5 μl) was electrophoresed on a denaturing 20% polyacrylamide gel (0.09 M tris-borate pH 8.3, 2 mM EDTA, 20% acrylamide, 8M urea).
(§3) Gels were dried, exposed in a PhosphorImager cassette, and analyzed using a Typhoon 8610 Variable Mode Imager (Amersham Biosciences) and quantitated using ImageQuant 5.2. Percent inhibition (% I) was calculated using the following equation: %I=100×[1−(D−C)/(N−C)]
(§4) where C, N, and D are the fractions of 21-mer substrate converted to 19-mer (3′-processing product) or strand transfer products for DNA alone, DNA plus IN, and IN plus drug, respectively. The IC50 values were determined by plotting the logarithm of drug concentration versus percent inhibition to obtain concentration that produced 50% inhibition. […]

[2] = molecular target: T1, HIV-1 integrase (wild-type IN); assay: HIV-1 integrase strand transfer assay (32P-labeled 21-mer, gel); assay type: biochemical
From the text: as §1, §2, §3, §4

[3] = wild-type IN 200 nM, 7.5 mM MnCl2, read-out: Inhibition of IN Catalytic Activities IC50 (μM) 3′-processing
[4] = wild-type IN 200 nM, 7.5 mM MnCl2, read-out: Inhibition of IN Catalytic Activities IC50 (μM) Strand Transfer
[5] = unit inferred, read-out: HIV-1 IN Inhibitory Activities 3′-processing
[6] = unit inferred, read-out: HIV-1 IN Inhibitory Activities Strand transfer
[7] = unit inferred, read-out: IN inhibition activity 3′-processing
[8] = unit inferred, read-out: IN inhibition activity Strand transfer
[9] = Table 54, read-out: IN inhibition activity 3′-processing
[10] = Table 54, read-out: IN inhibition activity Strand transfer
[11] = Table 53, structurally diverse compounds, read-out: IN inhibition activity 3′-processing
[12] = Table 53, structurally diverse compounds, read-out: IN inhibition activity Strand transfer

Row | SMILES | IC50 [1, 3] | IC50 [2, 4] | IC50 [1, 5] | IC50 [2, 6] | also measured
1 | O=C(CCN1C(=O)C(=Cc2cccs2)SC1=S)Nc1ccc(O)c(C(=O)O)c1 [Compound X172] | 38 ± 16 µM | 38 ± 16 µM |  |  | 
2 | COc1cc(C=C2SC(=S)N(CCC(=O)Nc3ccc(C(=O)O)cc3)C2=O)cc(OC)c1OC [Compound X173] | 97 ± 6 µM | 85 ± 15 µM |  |  | 
3 | O=C(CCN1C(=O)/C(=C/c2cccs2)SC1=S)Nc1ccc2ccccc2c1 [Compound X174] | > 100 µM | > 100 µM |  |  | 
4 | O=C(CCN1C(=O)C(=Cc2cccs2)SC1=S)Nc1cccc(O)c1 [Compound X177] | > 100 µM | > 100 µM |  |  | 
5 | CC(=Cc1ccccc1)C=C1SC(=S)N(CCC(=O)Nc2ccc(O)c(C(=O)O)c2)C1=O [Compound X185] | 36 ± 23 µM | 23 ± 3 µM |  |  | 
6 | O=C(CCN1C(=O)/C(=C/c2ccc3c(c2)OCO3)SC1=S)Nc1ccc2c(c1)OCO2 [Compound X187] | 97 ± 6 µM | 93 ± 12 µM |  |  | 
7 | O=C(CCN1C(=O)C(=Cc2ccc3c(c2)OCO3)SC1=S)Nc1ccc(C(=O)O)c(O)c1 [Compound X188] | 33 ± 23 µM | 23 ± 13 µM |  |  | 
8 | Cc1ccc(C=C2SC(=S)N(CC(=O)Nc3cc([N+](=O)[O-])ccc3O)C2=O)cc1 [Compound X191] | 84 ± 24 µM | 80 ± 18 µM |  |  | 
9 | COc1ccc(C=C2SC(=S)N(CCC(=O)Nc3ccc(C(=O)O)c(O)c3)C2=O)cc1OC [Compound X192] | 61 ± 34 µM | 17 ± 4 µM |  |  | 
10 | O=C(CN1C(=O)C(=Cc2ccccc2Cl)SC1=S)Nc1ccc([N+](=O)[O-])cc1O [Compound X193] | > 100 µM | > 100 µM |  |  | 
11 | O=C(CN1C(=O)C(=Cc2ccccc2Cl)SC1=S)Nc1cc([N+](=O)[O-])ccc1O [Compound X194] | 20 ± 7 µM | 18 ± 11 µM |  |  | 
12 | Cc1ccc(C=C2SC(=S)N(CC(=O)Nc3ccc([N+](=O)[O-])cc3O)C2=O)cc1 [Compound X195] | > 100 µM | > 100 µM |  |  | 
13 | O=C(NC(=S)Nc1ccc(O)c(C(=O)O)c1)c1ccccc1 [Compound X199] | > 100 µM | > 100 µM |  |  | 
14 | O=C(CCN1C(=O)/C(=C/c2ccccc2Cl)SC1=S)Nc1ccc([N+](=O)[O-])cc1 [Compound X200] | > 100 µM | > 100 µM |  |  | 
15 | O=C1/C(=C/c2ccc(O)cc2O)SC(=S)N1c1ccccc1 [Compound X221] | > 100 µM | > 100 µM |  |  | 
16 | CCOc1cc(/C=C2\SC(=S)N(NC(=O)c3ccccc3O)C2=O)ccc1O [Compound X223] | 70 ± 27 µM | 38 ± 14 µM |  |  | 
17 | CC(C)Cn1c(=O)c(C(=O)Nc2ccccc2S(N)(=O)=O)c(O)c2ccccc21 [Compound X228] | 40 µM | 16 µM |  |  | 
18 | O=C(N/N=C1/C(=O)Nc2ccc(F)cc21)/C(=C/C=C/c1ccccc1)NC(=O)c1ccccc1 [Compound X231] |  |  | 60 µM | 38 µM | 
19 | O=C(N/N=C/c1cc(Br)ccc1O)/C(=C/C=C/c1ccccc1)NC(=O)c1ccccc1 [Compound X234] |  |  | 90 µM | 23 µM | 
20 | O=C(CSc1nc2ccccc2n1Cc1ccccc1)N/N=C/c1cc(Br)ccc1O [Compound X244] |  |  |  |  | IC50 [1, 7]: 60 ± 11 µM; IC50 [2, 8]: 51 ± 3 µM
21 | O=C(Nc1ccc(O)c(-c2nc3cc(Cl)ccc3o2)c1)c1cccnc1 [Compound X255] |  |  | 61 µM | 10 µM | 
22 | O=C(COc1ccccc1[N+](=O)[O-])Nc1ccc(O)c(-c2nc3ccccc3s2)c1 [Compound X257] |  |  | 99 µM | 80 µM | 
23 | CCOC(=O)c1c(-c2ccccc2)csc1NC(NC(=O)c1ccco1)C(=O)c1ccc(C)cc1 (centres unmarked) [Example X88] |  |  | > 100 µM | 79 µM | 
24 | O=C(N/N=C1\C(=O)Nc2ccc(Br)cc21)/C(O)=C/C(=O)c1ccc(Cl)cc1 [Example X115] |  |  | 42 µM | 28 µM | 
25 | COc1ccc(CCNC(=O)CC(=O)N/N=C/c2ccco2)cc1OC [Example X134] |  |  | > 100 µM | 90 µM | 
26 | O=C(Nc1ccccc1C(=O)O)c1cccc(S(=O)(=O)Nc2cccc([N+](=O)[O-])c2)c1 [Example X148] |  |  | 89 µM | 90 µM | 
27 | O=C(/C=C/c1ccc(Cl)cc1)Nc1ccc(NC(=O)c2ccco2)cc1 [Example X159] |  |  | 90 µM | 91 µM | 
28 | O=C(c1ccccc1)c1cc(Br)ccc1NC(=O)c1nc[nH]c1C(=O)O [Example X160] |  |  | 16 µM | 17 µM | 

Row | SMILES | IC50 [1, 3] | IC50 [2, 4] | IC50 [1, 5] | IC50 [2, 6] | also measured
29 | O=C(O)C(Cc1c[nH]c2ccccc12)NS(=O)(=O)c1ccccc1[N+](=O)[O-] (centres unmarked) [Example X182] |  |  | 88 µM | 56 µM | 
30 | O=C(/C=C/c1ccco1)NC(=S)Nc1ccccc1O [Example X205] |  |  | 57 µM | 28 µM | 
31 | Oc1ccccc1/C=N/CC(O)C/N=C/c1ccccc1O [Example X208] |  |  | 97 µM | 61 µM | 
32 | O=C(N/N=C/c1ccc(/C=N/NC(=O)c2cc(O)cc(O)c2)cc1)c1cc(O)cc(O)c1 [Example X218] |  |  | 76 µM | 56 µM | 
33 | Cc1c(C(c2ccc(O)c(O)c2)c2c(C)n(C)n(-c3ccccc3)c2=O)c(=O)n(-c2ccccc2)n1C [Example X219] |  |  | 89 µM | 31 µM | 
34 | O=C(CSc1nc(CSc2ccc(Cl)cc2)cc(=O)[nH]1)Nc1ccc(Cl)cc1Cl [Example X272] |  |  | 34 µM | 24 µM | 
35 | COc1cc(/C=N/NC2=NC(=O)C(CC(=O)Nc3ccc(Cl)c(Cl)c3)S2)ccc1O (centres unmarked) [Example X278] |  |  | 89 µM | 38 µM | 
36 | COc1ccc(N(CC(=O)N/N=C/c2c(O)ccc3ccccc23)S(C)(=O)=O)cc1Cl [Example X279] |  |  | 95 µM | 59 µM | 
37 | Cc1ccc(C(=O)N/C(=C/c2ccc(-c3ccc(Cl)cc3Cl)o2)C(=O)NCCCO)cc1 [Example X280] |  |  | > 1000 µM | 85 µM | 
38 | N#Cc1c(-c2ccc(Cl)cc2)cc(-c2ccccc2)nc1SCC(=O)O [GLD2A2] |  |  |  |  | IC50 [1, 7]: 98 ± 10 µM; IC50 [2, 8]: 60 ± 12 µM
39 | Nc1cc(N)nc(SCC(=O)O)n1 [GLD2A3] |  |  |  |  | IC50 [1, 7]: > 100 µM; IC50 [2, 8]: > 100 µM
40 | O=C(O)CSc1nc(-c2ccccc2)cc(C(F)(F)F)n1 [GLD2A4] |  |  |  |  | IC50 [1, 7]: > 100 µM; IC50 [2, 8]: > 100 µM
41 | O=C(O)CSc1nc(-c2cccs2)cc(C(F)(F)F)n1 [GLD2A10] |  |  |  |  | IC50 [1, 7]: > 100 µM; IC50 [2, 8]: > 100 µM
42 | O=C(O)CSc1nc(Nc2ccccc2)nc(N2CCOCC2)n1 [GLD2A18] |  |  |  |  | IC50 [1, 7]: > 100 µM; IC50 [2, 8]: > 100 µM
43 | O=C(O)CSc1nnc(-c2ccco2)c(-c2ccco2)n1 [GLD2] |  |  |  |  | IC50 [1, 7]: 18 ± 4 µM; IC50 [2, 8]: 5 ± 3 µM
44 | CCOc1cc(N(CC)CC)ccc1/C=C1\C(=O)N(c2nnn[nH]2)N=C1C [GLD12A1] |  |  |  |  | IC50 [1, 9]: 61 ± 8 µM; IC50 [2, 10]: 65 ± 8 µM
45 | COc1cc(/C=C2\C(=O)N(c3nnn[nH]3)N=C2C)cc(Cl)c1OC [GLD12A2] |  |  |  |  | IC50 [1, 9]: 5 ± 2 µM; IC50 [2, 10]: 4 ± 2 µM
46 | CCOc1cc(/C=C2\C(=O)N(c3nnn[nH]3)N=C2C)ccc1OC [GLD12A3] |  |  |  |  | IC50 [1, 9]: 75 ± 28 µM; IC50 [2, 10]: 59 ± 13 µM
47 | CCOc1cc(/C=C2\C(=O)N(c3nnn[nH]3)N=C2C)cc(Cl)c1OCC [GLD12A4] |  |  |  |  | IC50 [1, 9]: 7 ± 6 µM; IC50 [2, 10]: 4 ± 2 µM
48 | CC1=NN(c2nnn[nH]2)C(=O)/C1=C\c1cc(Cl)c(O)c(Cl)c1 [GLD12A5] |  |  |  |  | IC50 [1, 9]: 11 ± 3 µM; IC50 [2, 10]: 13 ± 11 µM
49 | COc1ccc(/C=C2\C(=O)N(c3nnn[nH]3)N=C2C)cc1OCc1ccccc1Cl [GLD12] |  |  |  |  | IC50 [1, 9]: 14 ± 7 µM; IC50 [2, 10]: 5 ± 3 µM
50 | CCOc1cc(CNc2nn[nH]n2)cc(Cl)c1OCc1ccc(Cl)cc1 [GLD19] |  |  |  |  | IC50 [1, 11]: > 100 µM; IC50 [2, 12]: 52 ± 8 µM
51 | O=C(O)C(O)C(O)c1nc2cc3ccccc3cc2[nH]1 (centres unmarked) [GLD20] |  |  |  |  | IC50 [1, 11]: > 100 µM; IC50 [2, 12]: 46 ± 12 µM
52 | O=C(Nc1ccccc1C(=O)O)c1cccc(S(=O)(=O)Nc2ccc(Oc3ccccc3)cc2)c1 [GLD25] |  |  |  |  | IC50 [1, 11]: 42 ± 10 µM; IC50 [2, 12]: 18 ± 3 µM
53 | Cc1ccc2nc(-c3ccc(NC(=O)/C=C/C(=O)O)cc3)sc2c1 [GLD28] |  |  |  |  | IC50 [1, 11]: 48 ± 19 µM; IC50 [2, 12]: 23 ± 4 µM
54 | O=C(O)CN1C(=O)/C(=C2\SC(=S)N(C(Cc3ccccc3)C(=O)O)C2=O)c2ccccc21 (centres unmarked) [GLD31] |  |  |  |  | IC50 [1, 11]: 92 ± 17 µM; IC50 [2, 12]: 66 ± 17 µM
55 | O=C(O)C1CCCCC1C(=O)Nc1ccc(Oc2cccc3ccccc23)cc1 (centres unmarked) [GLD32] |  |  |  |  | IC50 [1, 11]: > 100 µM; IC50 [2, 12]: 34 ± 7 µM
